Our source for the ED50 and LD50 values is US4902794A, “Triazolo-benzodiazepines” (The Upjohn Company, priority 1983, dated 1990).

Data set [1] has as its system mice. Put plainly: Chimney test. Format: in vivo. The note with it: Mus musculus, ip, intraperitoneal, failure to back up and out of vertical glass cylinder within 30 seconds, read-out: ED50, Chimney test (Ch). The source says:
(§1) Sedative effects of 8-chloro-1-(hydroxymethyl)-6-phenyl-4H-s-triazolo[4,3-a][1,4]benzodiazepine (A) are shown by the following tests in mice:
The test determines the ability of mice to back up and out of a vertical glass cylinder within 30 seconds. At the effective dosage, 50% of the mice failed doing it.

Data set [2] concerns mice. Put plainly: Nicotine antagonism test. Format: in vivo. As to conditions: Mus musculus, ip, intraperitoneal, nicotine salicylate 2 mg./kg. thirty minutes later. The protocol: as §1
Nicotine antagonism test: Mice in a group of 6 are injected with the test compound-8-chloro-1-(hydroxymethyl)-6phenyl-4H-s-triazolo[4,3-a][1,4]benzodiazepine. Thirty minutes later the mice including control (untreated) mice are injected with nicotine salicylate (2 mg./kg.). The control mice show overstimulation, i.e., (1) running convulsions followed by (2) tonic extensor fits; followed by (3) death. […] (ED50) was necessary.

The test system of data set [3] is mice. The experiment in a line: Pedestal test. Format: in vivo. The note with it: Mus musculus, ip, intraperitoneal, stay on the pedestal for more than 1 minute, read-out: ED50, Pedestal test (P). As to the method:
as §1
Pedestal test: The untreated mouse leaves the pedestal in less than a minute to climb back to the floor of the standard mouse box. Tranquilized mice will stay on the pedestal for more than 1 minute.

A short description of data set [4]: LD50 (lethal dose) in mice. The note with it: mouse, in vivo.
Data set [5] concerns mice. The experiment in a line: Dish test. It is filed as in vivo. The note with it: Mus musculus, ip, intraperitoneal, remaining in the dish for more than 3 minutes, read-out: ED50, Dish test (D). The protocol:
as §1
Dish test: Mice in Petri dishes (10 cm. diameter, 5 cm. higher, partially embedded in wood shavings), climb out in a very short itme, when not treated. Mice remaining in the dish for more than 3 minutes indicates tranquilization. The ED50 equals the dose of test compound at which 50% of the mice remain in the dish. The ED50 (intraperitoneal administration) in this test was 2.0 mg./kg.

Where [6] appears, read: read-out: ED50, Nicotine antagonism (3) test (Ni): protection of 50% of the mice against death.

SMILES strings stand for the structures.

For `OCc1nnc2n1-c1ccc(Cl)cc1C(c1ccccc1)=NC2` [A, 8-chloro-1-(hydroxymethyl)-6-phenyl-4H-s-triazolo[4,3-a][1,4]benzodiazepine], the ED50 is 0.63 mg/kg with mice [1]; 0.08 mg/kg with mice [2] (read-out: ED50, Nicotine antagonism (2) test: dosage protecting 50% of the mice against tonic extensor fits); 0.1 mg/kg in the data set with mice [2] (setting [6]); 1.56 mg/kg with mice [3]; 2 mg/kg in the data set on mice [5]. The compound also gave an LD50 in data set [4] above 100 mg/kg.
On to `CCOCc1nnc2n1-c1ccc(Cl)cc1C(c1ccccc1)=NC2` [B, 8-Chloro-1-(ethoxymethyl)-6-phenyl-4H-s-triazolo[4,3-a][1,4]benzodiazepine], for which the ED50 came out at 1 mg/kg in the data set on mice [1], 0.6 mg/kg with mice [2] (setting [6]), 1.4 mg/kg in the data set with mice [3] and 1.6 mg/kg in the data set with mice [5]. The same compound had an LD50 in data set [4] above 100 mg/kg.
For the compound `OCc1nnc2n1-c1ccc(Cl)cc1C(c1ccccc1Cl)=NC2` [C, 8-Chloro-1-(hydroxymethyl)-6-(o-chlorophenyl)-4H-s-triazolo[4,3-a][1,4]benzodiazepine], the ED50 with mice [1] stood at 0.04 mg/kg; in the data set on mice [2] (setting [6]), 0.032 mg/kg; with mice [3], 0.03 mg/kg; in the data set on mice [5], 0.03 mg/kg. The LD50 in data set [4] was above 100 mg/kg.
In the case of `O=C(O)CCC(=O)OCc1nnc2n1-c1ccc(Cl)cc1C(c1ccccc1Cl)=NC2` [D, Hydrogensuccinate ester of 8-chloro-1-(hydroxymethyl)-6-(o-chlorophenyl)-4H-s-triazolo[4,3-a][1,4]benzodiazepine], the ED50 in the data set with mice [1] was found to be 0.125 mg/kg; with mice [2] (setting [6]), 0.09 mg/kg; in the data set with mice [3], 0.2 mg/kg; with mice [5], 0.125 mg/kg. Also, the LD50 in data set [4] was above 25 mg/kg.
